# According to the supplement of paper PMC10307832:
# Tests used:
# Test in all cases: relative viability (nuclei count vs DMSO), 5 days (fraction); higher = more cells survive
# Apatinib + Alpelisib = compound: N#CC1(c2ccc(NC(=O)c3cccnc3NCc3ccncc3)cc2)CCCC1 [Apatinib] + Cc1nc(NC(=O)N2CCC[C@H]2C(N)=O)sc1-c1ccnc(C(C)(C)C(F)(F)F)c1 [Alpelisib] (partner 2 µM)
# Method in brief: (§1)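 Medians of duplicate plates are given as relative viability. That measure is the nuclei count in treated wells divided by the count in vehicle wells. Counts were taken on 4× images of lung cancer cell lines in 1536-well plates, 5 days after pin-tool dosing the day after seeding with one drug alone or a fixed anchor-drug dose plus five library-drug doses (not always all listed) in √10 steps.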
# Metformin + Lapatinib = compound: CN(C)C(=N)NC(=N)N [Metformin] + CS(=O)(=O)CCNCc1ccc(-c2ccc3ncnc(Nc4ccc(OCc5cccc(F)c5)c(Cl)c4)c3c2)o1 [Lapatinib] (partner 2 µM)
# Method in brief: as §1
# Metformin + Pictilisib = compound: CN(C)C(=N)NC(=N)N [Metformin] + CS(=O)(=O)N1CCN(Cc2cc3nc(-c4cccc5[nH]ncc45)nc(N4CCOCC4)c3s2)CC1 [Pictilisib] (partner 1 µM)
# Method in brief: as §1
# Apatinib + Lapatinib = compound: N#CC1(c2ccc(NC(=O)c3cccnc3NCc3ccncc3)cc2)CCCC1 [Apatinib] + CS(=O)(=O)CCNCc1ccc(-c2ccc3ncnc(Nc4ccc(OCc5cccc(F)c5)c(Cl)c4)c3c2)o1 [Lapatinib] (partner 2 µM)
# Method in brief: as §1
Cell Line,relative viability (Apatinib + Alpelisib; first compound 0.08 µM),relative viability (Apatinib + Alpelisib; first compound 0.253 µM),relative viability (Apatinib + Alpelisib; first compound 0.8 µM),relative viability (Apatinib + Alpelisib; first compound 2.53 µM),relative viability (Apatinib + Alpelisib; first compound 8 µM),relative viability (Metformin + Lapatinib; first compound 10 µM),relative viability (Metformin + Lapatinib; first compound 31.62 µM),relative viability (Metformin + Lapatinib; first compound 100 µM),relative viability (Metformin + Lapatinib; first compound 316.23 µM),relative viability (Metformin + Lapatinib; first compound 1000 µM),relative viability (Metformin + Pictilisib; first compound 10 µM),relative viability (Metformin + Pictilisib; first compound 31.62 µM),relative viability (Metformin + Pictilisib; first compound 100 µM),relative viability (Metformin + Pictilisib; first compound 316.23 µM),relative viability (Metformin + Pictilisib; first compound 1000 µM),relative viability (Apatinib + Lapatinib; first compound 0.08 µM),relative viability (Apatinib + Lapatinib; first compound 0.253 µM),relative viability (Apatinib + Lapatinib; first compound 0.8 µM),relative viability (Apatinib + Lapatinib; first compound 2.53 µM),relative viability (Apatinib + Lapatinib; first compound 8 µM)
HCC-44,0.854,0.784,0.745,0.766,0.726,1.05,0.976,1.03,0.939,1.03,0.682,0.771,0.734,0.63,0.7,1.04,0.993,0.991,0.945,0.941
HOP-62,0.727,,1.15,0.801,0.713,0.725,1.05,0.891,0.777,1.05,0.739,0.656,0.786,0.531,0.657,0.994,,0.945,0.955,0.929
NCI-H358,0.87,0.914,0.831,0.882,0.781,0.409,0.671,0.616,0.58,0.602,0.356,0.424,0.44,0.332,0.378,0.47,0.397,0.474,0.439,0.403
NCI-H596,0.535,0.528,0.579,0.402,0.222,1.18,1.22,1.07,1.06,1.2,0.431,0.479,0.468,0.452,0.421,1.16,1.1,1.02,0.976,1.18
ABC-1,,1.2,1.1,1.01,1.1,1.53,1.12,1.4,1.59,0.851,,0.76,0.787,0.643,0.265,1.03,1.45,1.42,1.14,0.993
NCI-H1734,0.739,0.774,0.701,0.591,0.595,1.03,1.04,1.09,0.991,1.14,0.464,0.48,0.462,0.407,0.495,1.14,1.13,1.06,0.871,0.909
HARA,1.07,0.837,0.852,0.735,0.795,1,1,1.14,1,0.957,0.504,0.468,0.497,0.496,0.46,0.755,0.895,0.674,0.731,0.623
NCI-H1703,0.289,0.252,0.25,0.175,0.17,1.71,1.46,1.15,1.05,1.05,0.291,0.309,0.29,0.291,0.226,1.01,0.685,0.291,0.228,0.276
A549,0.784,0.844,0.919,0.78,0.65,0.946,0.934,0.909,0.722,0.923,0.428,0.517,0.553,0.464,0.0878,1.14,1.05,1.04,0.944,0.842
NCI-H1915,1.08,1.09,1.04,0.916,0.81,,1.07,0.973,0.976,1,,1.08,0.95,0.919,0.933,1.04,0.94,0.892,0.802,0.935
NCI-H1355,0.884,0.823,0.816,0.804,0.67,0.884,0.955,0.946,0.982,1.06,0.503,0.439,0.438,0.435,0.504,1.06,0.963,0.973,0.923,0.944
NCI-H1650,,,,,,0.699,0.844,0.949,0.707,0.648,0.791,0.702,0.721,0.607,0.504,0.626,0.796,0.908,0.756,0.689
HCC-78,0.414,0.291,0.364,0.25,0.382,0.494,1.05,0.863,0.933,0.969,0.291,0.257,0.201,0.159,0.244,0.568,0.731,0.942,0.829,0.748
NCI-H1666,0.943,1.01,0.936,0.979,0.943,0.57,0.557,0.601,0.535,0.67,0.481,0.536,0.352,0.356,0.467,0.631,0.726,0.736,0.759,0.682
HCC-15,0.911,0.904,0.839,0.891,0.705,0.54,0.908,0.891,0.785,0.913,0.625,0.789,0.746,0.75,0.823,0.928,0.859,0.808,0.742,0.827
EKVX,0.92,0.861,0.882,0.761,0.774,0.185,0.16,0.176,0.222,0.196,0.404,0.392,0.453,0.414,0.392,0.186,0.131,0.229,0.186,0.188
NCI-H3122,0.781,0.796,0.822,0.761,0.714,0.871,0.872,0.89,0.846,0.819,0.488,0.588,0.459,0.437,0.5,1.03,1.02,1.01,0.989,1.01
